Data published in patent US12484580B2, “Use of alkoxypyrazoles as nitrification inhibitors” (BASF SE, priority 2018, dated 2025).

Legend:
[1] = volatility of prior-art nitrification inhibitor; type: physicochemical; conditions: stated as disadvantageous for long-term applications
[2] = system: nitrification (soil microbial biomass); experiment: inhibition of nitrification in soil incubation test (ammonium and nitrate content after 0 and 14 days); conditions: compound at 1% of nitrogen N, 100 g soil, 10 mg ammoniumsulfate-N, 20° C., best obtained NI value
Experimental: The compounds of the invention have been tested as follows in terms of the inhibition of nitrification: 100 g soil is filled into 500 ml plastic bottles (e.g. soil sampled from the field) and is moistened to 50% water holding capacity. The soil is incubated at 20° C. for two weeks to activate the microbial biomass. 1 ml test solution, containing the compound in the appropriate concentration (usually 0.3 or 1% of nitrogen N), or DMSO and 10 mg nitrogen in the form of ammoniumsulfate-N is added to the soil and everything mixed well. Bottles are capped but loosely to allow air exchange. The bottles are then incubated at 20° C. for 0 and 14 days. For analysis, 300 ml of a 1% K2SO4-solution is added to the bottle containing the soil and shaken for 2 hours in a horizontal shaker at 150 rpm. Then the whole solution is filtered through a filter (Macherey-Nagel Filter MN 807 ¼). Ammonium and nitrate content is then analyzed in the filtrate in an autoanalyzer at 550 nm (Merck, AA11). The inhibition (NI @ a specified concentration) is calculated as follows: [formula]

volatility [1] | Structure (SMILES) | NI* @ 1% [2]
high volatility | CCOc1cc(C)[nH]n1 [3-ethoxy-5-methylpyrazole] | 
 | CCOc1[nH]nc(C)c1Cl [compound 9] | 22.0
